Data published in patent US20210008175A1, “BACTERIOPHAGE LYSIN AND ANTIBIOTIC COMBINATIONS AGAINST GRAM POSITIVE BACTERIA” (priority 2012, published 2021).
Converted amounts (≈) assume the structure as drawn. Where two headings read alike, the source gives them in different places. Values belong to the compound of their own block, whether it stands above or below them.

Legend:
Staphylococcus aureus = experiment: MIC, broth microdilution (CLSI M07-A9); type: cell-based; conditions: for MIC90: with reducing agent
[1] = test system: Staphylococcus aureus (MRSA and MSSA strains); experiment: Time kill assay, single agents at 1×MIC (CLSI); type: cell-based; conditions: 1×MIC; 20 MSSA and 42 MRSA strains
MRSA S. aureus strains = experiment: Dual agent MIC assay (PlySs2 and daptomycin together, broth microdilution); type: cell-based; conditions: for MIC combo: PlySs2 and daptomycin combined; for MIC: Staphylococcus aureus, MRSA
S. aureus [2] = experiment: Cell envelope binding of BODIPY-fluorescein-labeled antibiotics; type: cell-based
Description: As a complement to the synergy studies, daptomycin and vancomycin cell envelope-binding was examined using BODIPY-fluorescein-labeled antibiotics in the presence and absence of sub-MIC levels of CF-301. […] Similarly, cell wall-labeling with vancomycin occurs within 5 minutes in the presence of CF-301 (⅛^th MIC) versus 30 minutes without CF-301 (FIG. 20B). For both antibiotics, the labeling was first observed at bacterial division planes.

[3] = test system: MRSA strain MW2 and MSSA strain ATCC 29213; experiment: MIC in the presence of surfactant (Survanta), broth microdilution; type: cell-based, Staphylococcus aureus
MRSA strain 269 (MW2) = experiment: Combination MIC study in the presence of 15% surfactant (Survanta); type: cell-based, Staphylococcus aureus; conditions: PlySs2 plus daptomycin
S. aureus [4] = experiment: Murine bacteremia model, survival; type: in vivo, BALB/c mice
[5] = test system: MRSA strain ATCC 700699 and MSSA strain ATCC 25923; experiment: microbe, parasite or virus in culture; type: cell-based, Staphylococcus aureus; conditions: Staphylococcus aureus
[6] = test system: MRSA Staphylococcus aureus strain (MW2); experiment: microbe, parasite or virus in culture; type: cell-based; conditions: for MIC: Staphylococcus aureus, MRSA
[7] = high challenge (10^9 CFU MRSA MW2), dosing at 2 hours, daptomycin 50 mg/kg once daily, PlySs2 5.25 mg/kg (FIG. 27B)

SMILES: CCCCCCCCCC(=O)N[C@@H](Cc1c[nH]c2ccccc12)C(=O)N[C@H](CC(N)=O)C(=O)N[C@@H](CC(=O)O)C(=O)N[C@@H]1C(=O)NCC(=O)N[C@@H](CCCN)C(=O)N[C@@H](CC(=O)O)C(=O)N[C@H](C)C(=O)N[C@@H](CC(=O)O)C(=O)NCC(=O)N[C@H](CO)C(=O)N[C@@H]([C@H](C)CC(=O)O)C(=O)N[C@@H](CC(=O)c2ccccc2N)C(=O)O[C@@H]1C [Daptomycin]
- MIC90 (Staphylococcus aureus; DRSA (n = 8)): 16
- MIC90 (Staphylococcus aureus; LRSA (n = 5)): 1
- MIC90 (Staphylococcus aureus; MRSA (n = 45)): 1
- MIC90 (Staphylococcus aureus; MSSA (n-28)): 1
- MIC90 (Staphylococcus aureus; Staphylococcus aureus, DRSA (n = 8), read-out: MIC90): 9.9 µM (≈ 16 µg/mL)
- MIC90 (Staphylococcus aureus; Staphylococcus aureus, LRSA (n = 5), read-out: MIC90): 0.6 µM (≈ 0.972 µg/mL)
- MIC90 (Staphylococcus aureus; Staphylococcus aureus, MRSA, MRSA (n = 45), read-out: MIC90): 0.6 µM (≈ 0.972 µg/mL)
- MIC90 (Staphylococcus aureus; Staphylococcus aureus, MSSA, MSSA (n-28), read-out: MIC90): 0.6 µM (≈ 0.972 µg/mL)
- MIC90 (Staphylococcus aureus; Staphylococcus aureus, VISA, VISA (n = 10), read-out: MIC90): 4.9 µM (≈ 7.94 µg/mL)
- MIC90 (Staphylococcus aureus; Staphylococcus aureus, VRSA, VRSA (n = 14), read-out: MIC90): 0.6 µM (≈ 0.972 µg/mL)
- MIC90 (Staphylococcus aureus; VISA (n = 10)): 8
- MIC90 (Staphylococcus aureus; VRSA (n = 14)): 1
- time to reach bactericidal levels (≥3-log10 reduction in CFUs) [1]: 6 hours
- Fold reduction (MRSA S. aureus strains; MRSA strain 223): 128
- MIC combo (MRSA S. aureus strains; MRSA strain 223): 7.5 ng/mL
- Fold reduction (MRSA S. aureus strains; MRSA strain 241): 256
- MIC combo (MRSA S. aureus strains; MRSA strain 241): 3.7 ng/mL
- Fold reduction (MRSA S. aureus strains; MRSA strain 263): 128
- MIC combo (MRSA S. aureus strains; MRSA strain 263): 7.5 ng/mL
- Fold reduction (MRSA S. aureus strains; MRSA strain 269 (MW2)): 64
- MIC combo (MRSA S. aureus strains; MRSA strain 269 (MW2)): 15 ng/mL
- Fold reduction (MRSA S. aureus strains; MRSA strain 270): 64
- MIC combo (MRSA S. aureus strains; MRSA strain 270): 15 ng/mL
- Fold reduction (MRSA S. aureus strains; MRSA strain 553): 128
- MIC combo (MRSA S. aureus strains; MRSA strain 553): 7.5 ng/mL
- Fold reduction (MRSA S. aureus strains; MRSA strain 650): 64
- MIC combo (MRSA S. aureus strains; MRSA strain 650): 15 ng/mL
- Fold reduction (MRSA S. aureus strains; MRSA strain 827): 128
- MIC combo (MRSA S. aureus strains; MRSA strain 827): 7.5 ng/mL
- Fold reduction (MRSA S. aureus strains; MRSA strain 828): 128
- MIC combo (MRSA S. aureus strains; MRSA strain 828): 7.5 ng/mL
- Fold reduction (MRSA S. aureus strains; MRSA strain 829): 128
- MIC combo (MRSA S. aureus strains; MRSA strain 829): 7.5 ng/mL
- Fold reduction (MRSA S. aureus strains; MRSA strain 830): 64
- MIC combo (MRSA S. aureus strains; MRSA strain 830): 15 ng/mL
- Fold reduction (MRSA S. aureus strains; MRSA strain 833): 128
- MIC combo (MRSA S. aureus strains; MRSA strain 833): 7.5 ng/mL
- fold reduction in the effective MIC (MRSA S. aureus strains; PlySs2 and daptomycin together, a dozen MRSA strains): 16-256 fold
- MIC (MRSA S. aureus strains; MRSA strain 223, single-agent, read-out: MIC alone): 1 µg/mL (≈ 0.617 µM)
- MIC (MRSA S. aureus strains; MRSA strain 241, single-agent, read-out: MIC alone): 1 µg/mL (≈ 0.617 µM)
- MIC (MRSA S. aureus strains; MRSA strain 263, single-agent, read-out: MIC alone): 1 µg/mL (≈ 0.617 µM)
- MIC (MRSA S. aureus strains; MRSA strain 269 (MW2), single-agent, read-out: MIC alone): 1 µg/mL (≈ 0.617 µM)
- MIC (MRSA S. aureus strains; MRSA strain 270, single-agent, read-out: MIC alone): 1 µg/mL (≈ 0.617 µM)
- MIC (MRSA S. aureus strains; MRSA strain 553, single-agent, read-out: MIC alone): 1 µg/mL (≈ 0.617 µM)
- MIC (MRSA S. aureus strains; MRSA strain 650, single-agent, read-out: MIC alone): 1 µg/mL (≈ 0.617 µM)
- MIC (MRSA S. aureus strains; MRSA strain 827, single-agent, read-out: MIC alone): 1 µg/mL (≈ 0.617 µM)
- MIC (MRSA S. aureus strains; MRSA strain 828, single-agent, read-out: MIC alone): 1 µg/mL (≈ 0.617 µM)
- MIC (MRSA S. aureus strains; MRSA strain 829, single-agent, read-out: MIC alone): 1 µg/mL (≈ 0.617 µM)
- MIC (MRSA S. aureus strains; MRSA strain 830, single-agent, read-out: MIC alone): 1 µg/mL (≈ 0.617 µM)
- MIC (MRSA S. aureus strains; MRSA strain 833, single-agent, read-out: MIC alone): 1 µg/mL (≈ 0.617 µM)
- MIC (MRSA S. aureus strains; daptomycin as single agent, read-out: MIC): 1 µg/mL (≈ 0.617 µM)
- MIC (MRSA S. aureus strains; daptomycin with 0.25× MIC PlySs2, read-out: MIC): 0.0075 µg/mL (≈ 0.00463 µM)
- decrease of MIC (MRSA S. aureus strains; daptomycin with 0.25× MIC PlySs2): 128 fold
- degree of potency enhancement (MRSA S. aureus strains; daptomycin with PlySs2, across 12 MRSA strains): 64 to 256 fold
- time to antibiotic penetration (BODIPY-labeled daptomycin binding) (S. aureus [2]; in the presence of CF-301 at 1/32nd MIC): 15 min
- time to antibiotic penetration (BODIPY-labeled daptomycin binding) (S. aureus [2]; without CF-301): 180 min
- inhibition of MIC by surfactant ([3]; Survanta, up to 15%): up to 256 fold
- inhibition of MIC by surfactant ([3]; surfactant concentration of 1.25%): more than 20 fold
- effective concentration in combination as fraction of MIC (MRSA strain 269 (MW2)): 1/1024
- most dilute concentration in combination that still inhibits growth (MRSA strain 269 (MW2)): 0.25 µg/mL
- 24 hour survival rate (S. aureus [4]; [7]): 47%
- 72 hour survival rate (S. aureus [4]; [7]): 31%
- survival at 72 hours (S. aureus [4]; low challenge model (up to 7×10^6 CFU MRSA MW2), single dose at 4 hours, PlySs2 1.25 mg/kg, daptomycin 2 mg/kg): 23%
- MIC ([5]; 504 h, read-out: MIC in daptomycin resistant clones): 18 µg/mL (≈ 11.1 µM)
- MIC ([5]; read-out: MIC before daptomycin resistance selection): 1 µg/mL (≈ 0.617 µM)
- MIC ([6]; read-out: daptomycin MIC, ending values, passaged with PlySs2 (4 ug/ml) plus daptomycin, 30-day study): 4 µg/mL
- MIC ([6]; read-out: daptomycin MIC, ending values, three daptomycin-only cultures, 30-day study): 128 µg/mL (≈ 79 µM)
- antibiotic MIC, starting value ([6]; before serial passage): 1 µg/mL
- increase of daptomycin MIC ([6]; daptomycin-only cultures, 30-day study): 64 to 128 fold
- increase of daptomycin MIC ([6]; passaged with PlySs2 (4 ug/ml) plus daptomycin): 4 fold
- daptomycin MIC, ending values ([6]; three daptomycin-only cultures, 30-day study): 64 µg/mL

- MIC50/90 (Staphylococcus aureus; DRSA (n = 8)): 2
- MIC50/90 [uM] (Staphylococcus aureus; DRSA (n = 8)): 5.7 µM (≈ 1.92 µg/mL)
- MIC50/90 (Staphylococcus aureus; LRSA (n = 5)): >64
- MIC50/90 [uM] (Staphylococcus aureus; LRSA (n = 5)): >183 µM
- MIC50/90 (Staphylococcus aureus; MRSA (n = 45)): 2
- MIC50/90 [uM] (Staphylococcus aureus; MRSA (n = 45)): 5.7 µM (≈ 1.92 µg/mL)
- MIC50/90 (Staphylococcus aureus; MSSA (n-28)): 2
- MIC50/90 [uM] (Staphylococcus aureus; MSSA (n-28)): 5.7 µM (≈ 1.92 µg/mL)
- MIC50/90 (Staphylococcus aureus; VISA (n = 10)): 2
- MIC50/90 [uM] (Staphylococcus aureus; VISA (n = 10)): 5.7 µM (≈ 1.92 µg/mL)
- MIC50/90 (Staphylococcus aureus; VRSA (n = 14)): 2
- MIC50/90 [uM] (Staphylococcus aureus; VRSA (n = 14)): 5.7 µM (≈ 1.92 µg/mL)
SMILES: CC(=O)NC[C@H]1CN(c2ccc(N3CCOCC3)c(F)c2)C(=O)O1 [Linezolid]
